Results: patent US8969325B2, “TRPV1 antagonists” (AbbVie Inc., priority 2011, dated 2015)

Columns and labels:
human TRPV1 [1] = molecular target: T1, human TRPV1 (Homo sapiens (Human), UniProt Q8NER1); assay: Capsaicin Activation Assay (intracellular Ca2+, FLIPR); type: cell-based; details: recombinant HEK293 cells expressing hTRPV1, 50 nM capsaicin
In short: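 Stably transfected HEK293 cells expressing human TRPV1 cDNA, plated the day before in poly-D-lysine plates. Compounds serially diluted from 10 mM DMSO stocks; intracellular Ca2+ fluorescence read on FLIPR at 1 to 5 second intervals.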

human TRPV1 [2] = molecular target: T1, human TRPV1; assay: Acid Activation Assay (pH 5.0, intracellular Ca2+, FLIPR); type: cell-based; details: percentage of the maximal pH 5.0-induced response remaining; recombinant HEK293 hTRPV1 cells; maximum concentration tested 37.5 μM
In short: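 HEK293 cells stably expressing recombinant hTRPV1, loaded with Calcium-4 dye 90-120 min at 25° C. Compounds added over a 12-point half-log range (top 37.5 μM), then pH 5.0 DPBS/MES challenge after 3 min; FLIPR peak fluorescence over baseline given as % of maximal pH 5.0 response.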

T1 sequence (Q8NER1 whole entry): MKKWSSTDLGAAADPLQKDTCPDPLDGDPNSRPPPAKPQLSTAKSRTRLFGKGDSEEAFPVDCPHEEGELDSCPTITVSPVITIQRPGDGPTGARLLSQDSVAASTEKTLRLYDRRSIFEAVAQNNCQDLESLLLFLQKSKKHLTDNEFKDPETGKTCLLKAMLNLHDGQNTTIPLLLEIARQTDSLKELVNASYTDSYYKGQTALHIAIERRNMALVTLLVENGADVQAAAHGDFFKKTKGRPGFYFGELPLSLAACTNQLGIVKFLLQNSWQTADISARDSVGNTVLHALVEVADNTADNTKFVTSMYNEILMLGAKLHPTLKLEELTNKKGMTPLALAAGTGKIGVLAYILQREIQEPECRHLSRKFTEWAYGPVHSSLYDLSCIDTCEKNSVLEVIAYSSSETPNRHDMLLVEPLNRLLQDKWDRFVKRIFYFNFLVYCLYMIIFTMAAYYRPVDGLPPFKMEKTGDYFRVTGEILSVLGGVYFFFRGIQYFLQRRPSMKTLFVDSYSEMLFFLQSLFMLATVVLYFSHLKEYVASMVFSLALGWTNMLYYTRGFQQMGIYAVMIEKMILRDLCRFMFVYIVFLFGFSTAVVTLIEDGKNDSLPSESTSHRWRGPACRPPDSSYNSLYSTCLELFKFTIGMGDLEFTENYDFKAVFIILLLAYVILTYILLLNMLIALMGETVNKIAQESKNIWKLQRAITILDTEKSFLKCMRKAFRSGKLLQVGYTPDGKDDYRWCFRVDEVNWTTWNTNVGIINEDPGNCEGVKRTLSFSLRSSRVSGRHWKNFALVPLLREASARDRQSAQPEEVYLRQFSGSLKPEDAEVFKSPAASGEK

SMILES	IC50 (human TRPV1 [1])	human TRPV1 H^+ (max % remain) (human TRPV1 [2])
C[C@@]1(CF)C[C@@H](NC(=O)Nc2ccc3c(c2)NC(=O)CC3)c2ccc(Cl)cc2O1 [Example 246, 1-[(2S,4R)-7-chloro-2-(fluoromethyl)-2-methyl-3,4-dihydro-2H-chromen-4-yl]-3-(2-oxo-1,2,3,4-tetrahydroquinolin-7-yl)urea]	0.13 µM	33%
CC1(C)C[C@@H](NC(=O)Nc2ccc3c(c2)NC(=O)CC3)c2ccc(C(F)(F)F)nc2O1 [Example 247, 1-[(4R)-2,2-dimethyl-7-(trifluoromethyl)-3,4-dihydro-2H-pyrano[2,3-b]pyridin-4-yl]-3-(2-oxo-1,2,3,4-tetrahydroquinolin-7-yl)urea]	0.038 µM	18%
C[C@@]1(C(F)F)C[C@@H](NC(=O)Nc2ccc3c(c2)NC(=O)CC3)c2ccccc2O1 [Example 248, 1-[(2S,4R)-2-(difluoromethyl)-2-methyl-3,4-dihydro-2H-chromen-4-yl]-3-(2-oxo-1,2,3,4-tetrahydroquinolin-7-yl)urea]	0.16 µM	24%
C[C@]1(C(F)F)C[C@@H](NC(=O)Nc2ccc3c(c2)NC(=O)CC3)c2ccccc2O1 [Example 249, 1-[(2R,4R)-2-(difluoromethyl)-2-methyl-3,4-dihydro-2H-chromen-4-yl]-3-(2-oxo-1,2,3,4-tetrahydroquinolin-7-yl)urea]	0.11 µM	28%
O=C1CCc2ccc(NC(=O)N[C@@H]3CC(CF)(CF)Oc4cc(F)ccc43)cc2N1 [Example 250, 1-[(4R)-7-fluoro-2,2-bis(fluoromethyl)-3,4-dihydro-2H-chromen-4-yl]-3-(2-oxo-1,2,3,4-tetrahydroquinolin-7-yl)urea]	0.053 µM	23%
O=C1CCc2ccc(NC(=S)N[C@@H]3CC(CF)(CF)Oc4cc(Cl)ccc43)cc2N1 [Example 252, 1-[(4R)-7-chloro-2,2-bis(fluoromethyl)-3,4-dihydro-2H-chromen-4-yl]-3-(2-oxo-1,2,3,4-tetrahydroquinolin-7-yl)thiourea]	0.013 µM	48%
CN1C(=O)CCc2ccc(NC(=O)N[C@@H]3CC(C)(C)Oc4cc(F)ccc43)cc21 [Example 253, 1-[(4R)-7-fluoro-2,2-dimethyl-3,4-dihydro-2H-chromen-4-yl]-3-(1-methyl-2-oxo-1,2,3,4-tetrahydroquinolin-7-yl)urea]	0.11 µM	31%
CN1C(=O)CCc2c(NC(=O)N[C@@H]3CC(CF)(CF)Oc4cc(Cl)ccc43)cccc21 [Example 254, 1-[(4R)-7-chloro-2,2-bis(fluoromethyl)-3,4-dihydro-2H-chromen-4-yl]-3-(1-methyl-2-oxo-1,2,3,4-tetrahydroquinolin-5-yl)urea]	0.13 µM	73%
CN1C(=O)CCc2ccc(NC(=O)N[C@@H]3CC(CF)(CF)Oc4cc(Cl)ccc43)cc21 [Example 255, 1-[(4R)-7-chloro-2,2-bis(fluoromethyl)-3,4-dihydro-2H-chromen-4-yl]-3-(1-methyl-2-oxo-1,2,3,4-tetrahydroquinolin-7-yl)urea]	0.02 µM	5%
CN1C(=O)CCc2ccc(NC(=O)N[C@@H]3CC(C)(C)Oc4c3cccc4C(F)(F)F)cc21 [Example 256, 1-[(4R)-2,2-dimethyl-8-(trifluoromethyl)-3,4-dihydro-2H-chromen-4-yl]-3-(1-methyl-2-oxo-1,2,3,4-tetrahydroquinolin-7-yl)urea]	0.39 µM	89%
CN1C(=O)CCc2ccc(NC(=O)N[C@@H]3CC(C)(C)Oc4c(F)cccc43)cc21 [Example 257, 1-[(4R)-8-fluoro-2,2-dimethyl-3,4-dihydro-2H-chromen-4-yl]-3-(1-methyl-2-oxo-1,2,3,4-tetrahydroquinolin-7-yl)urea]	0.021 µM	72%
CN1C(=O)CCc2ccc(NC(=O)N[C@@H]3CCOc4ccccc43)cc21 [Example 258, 1-[(4R)-3,4-dihydro-2H-chromen-4-yl]-3-(1-methyl-2-oxo-1,2,3,4-tetrahydroquinolin-7-yl)urea]	0.17 µM	72%
CCC1(CC)C[C@@H](NC(=O)Nc2ccc3c(c2)N(C)C(=O)CC3)c2cccc(F)c2O1 [Example 259, 1-[(4R)-2,2-diethyl-8-fluoro-3,4-dihydro-2H-chromen-4-yl]-3-(1-methyl-2-oxo-1,2,3,4-tetrahydroquinolin-7-yl)urea]	4.7 µM	89%
CCC1(CC)C[C@@H](NC(=O)Nc2ccc3c(c2)N(C)C(=O)CC3)c2ccccc2O1 [Example 260, 1-[(4R)-2,2-diethyl-3,4-dihydro-2H-chromen-4-yl]-3-(1-methyl-2-oxo-1,2,3,4-tetrahydroquinolin-7-yl)urea]	0.13 µM	61%
CCC1(CC)C[C@@H](NC(=O)Nc2ccc3c(c2)N(C)C(=O)CC3)c2ccc(C(F)(F)F)cc2O1 [Example 261, 1-[(4R)-2,2-diethyl-7-(trifluoromethyl)-3,4-dihydro-2H-chromen-4-yl]-3-(1-methyl-2-oxo-1,2,3,4-tetrahydroquinolin-7-yl)urea]	0.22 µM	70%
CCC1(CC)C[C@@H](NC(=O)Nc2ccc3c(c2)N(C)C(=O)CC3)c2ccc(Cl)cc2O1 [Example 262, 1-[(4R)-7-chloro-2,2-diethyl-3,4-dihydro-2H-chromen-4-yl]-3-(1-methyl-2-oxo-1,2,3,4-tetrahydroquinolin-7-yl)urea]	0.46 µM	37%
CN1C(=O)CCc2ccc(NC(=O)N[C@@H]3CC(CF)(CF)Oc4cc(C(F)(F)F)ccc43)cc21 [Example 263, 1-[(4R)-2,2-bis(fluoromethyl)-7-(trifluoromethyl)-3,4-dihydro-2H-chromen-4-yl]-3-(1-methyl-2-oxo-1,2,3,4-tetrahydroquinolin-7-yl)urea]	0.5 µM	51%
CCC1(CC)C[C@@H](NC(=O)Nc2ccc3c(c2)N(C)C(=O)CC3)c2ccc(Cl)c(Cl)c2O1 [Example 264, 1-[(4R)-7,8-dichloro-2,2-diethyl-3,4-dihydro-2H-chromen-4-yl]-3-(1-methyl-2-oxo-1,2,3,4-tetrahydroquinolin-7-yl)urea]	0.17 µM	82%
CN1C(=O)CCc2ccc(NC(=O)N[C@@H]3CC(C)(C)Oc4cc(C(F)(F)F)ccc43)cc21 [Example 265, 1-[(4R)-2,2-dimethyl-7-(trifluoromethyl)-3,4-dihydro-2H-chromen-4-yl]-3-(1-methyl-2-oxo-1,2,3,4-tetrahydroquinolin-7-yl)urea]	0.66 µM	53%
CCCC1(CCC)C[C@@H](NC(=O)Nc2ccc3c(c2)N(C)C(=O)CC3)c2cc(F)ccc2O1 [Example 266, 1-[(4R)-6-fluoro-2,2-dipropyl-3,4-dihydro-2H-chromen-4-yl]-3-(1-methyl-2-oxo-1,2,3,4-tetrahydroquinolin-7-yl)urea]	0.065 µM	54%
CN1C(=O)CCc2ccc(NC(=O)N[C@@H]3CC(CF)(CF)Oc4ccc(F)cc43)cc21 [Example 267, 1-[(4R)-6-fluoro-2,2-bis(fluoromethyl)-3,4-dihydro-2H-chromen-4-yl]-3-(1-methyl-2-oxo-1,2,3,4-tetrahydroquinolin-7-yl)urea]	0.38 µM	63%
CN1C(=O)CCc2ccc(NC(=O)N[C@@H]3CC(CF)(CF)Oc4c(F)cc(F)cc43)cc21 [Example 268, 1-[(4R)-6,8-difluoro-2,2-bis(fluoromethyl)-3,4-dihydro-2H-chromen-4-yl]-3-(1-methyl-2-oxo-1,2,3,4-tetrahydroquinolin-7-yl)urea]	1.2 µM	66%
CN1C(=O)CCc2ccc(NC(=O)N[C@@H]3CC4(CCC4)Oc4ccc(F)cc43)cc21 [Example 269, 1-[(4R)-6-fluoro-3,4-dihydrospiro[chromene-2,1′-cyclobutan]-4-yl]-3-(1-methyl-2-oxo-1,2,3,4-tetrahydroquinolin-7-yl)urea]	0.54 µM	70%
CCC1(CC)C[C@@H](NC(=O)Nc2ccc3c(c2)N(C)C(=O)CC3)c2cc(F)ccc2O1 [Example 270, 1-[(4R)-2,2-diethyl-6-fluoro-3,4-dihydro-2H-chromen-4-yl]-3-(1-methyl-2-oxo-1,2,3,4-tetrahydroquinolin-7-yl)urea]	0.22 µM	86%
CCCC1(CCC)C[C@@H](NC(=O)Nc2ccc3c(c2)N(C)C(=O)CC3)c2cccc(F)c2O1 [Example 271, 1-[(4R)-8-fluoro-2,2-dipropyl-3,4-dihydro-2H-chromen-4-yl]-3-(1-methyl-2-oxo-1,2,3,4-tetrahydroquinolin-7-yl)urea]	0.17 µM	69%
CCC1(CC)C[C@@H](NC(=O)Nc2ccc3c(c2)N(C)C(=O)CC3)c2ccc(OC(F)(F)F)cc2O1 [Example 272, 1-[(4R)-2,2-diethyl-7-(trifluoromethoxy)-3,4-dihydro-2H-chromen-4-yl]-3-(1-methyl-2-oxo-1,2,3,4-tetrahydroquinolin-7-yl)urea]	0.18 µM	101%
CN1C(=O)CCc2ccc(NC(=O)N[C@@H]3CC(CF)(CF)Oc4c3ccc(Cl)c4F)cc21 [Example 273, 1-[(4R)-7-chloro-8-fluoro-2,2-bis(fluoromethyl)-3,4-dihydro-2H-chromen-4-yl]-3-(1-methyl-2-oxo-1,2,3,4-tetrahydroquinolin-7-yl)urea]	0.21 µM	55%
